Source: patent US11377442B2, “Small molecule agonists and antagonists of NR2F6 activity” (ZANDER THERAPEUTICS, INC., priority 2016, dated 2022)
Where “and” joins values, the source holds several entries; their conditions need not be identical. Equal values may be shown once. Read-outs that look alike come from different tables or passages of the source.

Columns and labels:
Type in all cases: cell-based
[1] = molecular target: T1, NR2F6 (Homo sapiens, UniProt P10588); test: NR2F6 agonist screening, Firefly signal cmpd/DMSO
T1 construct: expressed in transfected cells; also transient transfection
T1 sequence (P10588 1-404): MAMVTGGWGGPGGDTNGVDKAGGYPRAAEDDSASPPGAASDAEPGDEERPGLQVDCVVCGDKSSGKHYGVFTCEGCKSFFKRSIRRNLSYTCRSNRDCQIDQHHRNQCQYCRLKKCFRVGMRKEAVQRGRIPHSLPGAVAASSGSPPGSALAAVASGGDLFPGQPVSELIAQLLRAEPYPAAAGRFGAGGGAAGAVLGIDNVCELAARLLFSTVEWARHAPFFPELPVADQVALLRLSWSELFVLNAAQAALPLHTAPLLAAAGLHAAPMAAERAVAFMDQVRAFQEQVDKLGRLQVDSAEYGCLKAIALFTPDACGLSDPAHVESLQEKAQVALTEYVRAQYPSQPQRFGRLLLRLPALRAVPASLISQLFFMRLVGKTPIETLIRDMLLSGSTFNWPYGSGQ

[2] = test system: Renilla; test: Renilla signal in NR2F6 agonist screening, cmpd/DMSO; conditions: Renilla
[3] = test system: HEK293 pGL4; test: Firefly_pGL signal, cmpd/DMSO (pGL4 control cells); conditions: Homo sapiens
[4] = molecular target: T2, NR2F6 LBD (Homo sapiens, UniProt P10588); test: NR2F6 LBD transient transfection
T2 construct: expressed in transfected cells
T2 sequence (P10588 165-393 limits assumed): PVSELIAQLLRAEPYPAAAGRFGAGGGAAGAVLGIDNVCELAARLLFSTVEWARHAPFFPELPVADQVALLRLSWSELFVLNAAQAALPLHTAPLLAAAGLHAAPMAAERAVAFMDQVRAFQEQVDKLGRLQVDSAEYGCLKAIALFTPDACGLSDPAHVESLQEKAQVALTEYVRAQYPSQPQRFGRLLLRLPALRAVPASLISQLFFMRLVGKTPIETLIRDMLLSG
Summary of the method: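 LBD-transfected cells treated at 40, 10, 2 and 0.5 μM (4 replicates); cytotoxicity measured in parallel, normalized to DMSO (0%) and zero signal (100%). Higher concentrations excluded where signal loss reflected toxicity.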

[5] = test system: Renilla; test: Renilla signal, LBD, cmpd/DMSO (NR2F6 LBD transfected cells)
[6] = read-out: Renilla F4, cmpd/DMSO (mean)
[7] = F4, read-out: Renilla, F4, cmpd/DMSO (mean)
[8] = F4, 1% FBS, read-out: Renilla, F4, 1% FBS, cmpd/DMSO (mean)
[9] = F4, 10% FBS, read-out: Renilla, F4, 10% FBS, cmpd/DMSO (mean)

Firefly F4, cmpd/DMSO (mean) ([1]; 0.5 uM): 2.1
Firefly F4, cmpd/DMSO (mean) ([1]; 0.5 uM, F4): 1.7
Firefly F4, cmpd/DMSO (mean) ([1]; 2 uM): 4.5
Firefly F4, cmpd/DMSO (mean) ([1]; 2 uM, F4): 2.4
Firefly F4, cmpd/DMSO (mean) ([1]; 10 uM): 4.3
Firefly F4, cmpd/DMSO (mean) ([1]; 10 uM, F4): 6.2
Firefly F4, cmpd/DMSO (mean) ([1]; 40 uM): 1.0
Firefly F4, cmpd/DMSO (mean) ([1]; 40 uM, F4): 0.8
F4, Firefly/Renilla for S/B(F4) > 3 ([1]; 1% FBS, 10 uM): 3.5 and 2.6
F4, Firefly/Renilla for S/B(F4) > 3 ([1]; 10% FBS, 10 uM): 4.5 and 4.9
Firefly, F4/pGL4 for S/B(F4) > 3 ([1]; 10% FBS, 10 uM): 4.2 and 4.3
Firefly, F4, 1% FBS, cmpd/DMSO (mean) ([1]; F4, 1% FBS, 0.5 uM): 0.9
Firefly, F4, 1% FBS, cmpd/DMSO (mean) ([1]; F4, 1% FBS, 2 uM): 1.9 and 1.6
Firefly, F4, 1% FBS, cmpd/DMSO (mean) ([1]; F4, 1% FBS, 10 uM): 8.5 and 5.1
Firefly, F4, 1% FBS, cmpd/DMSO (mean) ([1]; F4, 1% FBS, 40 uM): 0.7 and 0.4
Firefly, F4, 10% FBS, cmpd/DMSO (mean) ([1]; F4, 10% FBS, 0.5 uM): 0.8 and 1.3
Firefly, F4, 10% FBS, cmpd/DMSO (mean) ([1]; F4, 10% FBS, 2 uM): 1.4 and 1.5
Firefly, F4, 10% FBS, cmpd/DMSO (mean) ([1]; F4, 10% FBS, 10 uM): 11 and 13
Firefly, F4, 10% FBS, cmpd/DMSO (mean) ([1]; F4, 10% FBS, 40 uM): 1.4 and 1.0
Activity, cmpd/DMSO ([1]; Table 31): 7.1
Firefly LBD, cmpd/DMSO (mean) ([4]; 0.5 uM): 1.3
Firefly LBD, cmpd/DMSO (mean) ([4]; 0.5 uM, LBD): 1.3
Firefly LBD, cmpd/DMSO (mean) ([4]; 2 uM): 2.9
Firefly LBD, cmpd/DMSO (mean) ([4]; 2 uM, LBD): 1.7
Firefly LBD, cmpd/DMSO (mean) ([4]; 10 uM): 1.2
Firefly LBD, cmpd/DMSO (mean) ([4]; 10 uM, LBD): 3.3
Firefly LBD, cmpd/DMSO (mean) ([4]; 40 uM): 0.2
Firefly LBD, cmpd/DMSO (mean) ([4]; 40 uM, LBD): 0.6
Structure (SMILES): O=S1(=O)C[C@H](N2CCCC2)[C@@H](S(=O)(=O)c2cccs2)C1 [Compound D104]
fold induction at 0.5 µM [2, 6]: 1.2
fold induction at 2 µM [2, 6]: 2
fold induction at 10 µM [2, 6]: 1.7
fold induction at 40 µM [2, 6]: 0.3
fold induction at 0.5 µM [2, 7]: 1.1
fold induction at 2 µM [2, 7]: 1.2
fold induction at 10 µM [2, 7]: 1.6
fold induction at 40 µM [2, 7]: 0.3
fold induction at 0.5 µM [2, 8]: 1.1
fold induction at 2 µM [2, 8]: 1.4
fold induction at 10 µM [2, 8]: 2.4
fold induction at 40 µM [2, 8]: 1
fold induction at 0.5 µM [2, 9]: 1
fold induction at 2 µM [2, 9]: 1.3
fold induction at 10 µM [2, 9]: 2.5
fold induction at 40 µM [2, 9]: 2.2
fold induction at 0.5 µM ([3]; HEK293, 0.5 uM, pGL4, read-out: Firefly pGL4, cmpd/DMSO (mean)): 1.3
fold induction at 0.5 µM ([3]; HEK293, 0.5 uM, read-out: Firefly pGL4, cmpd/DMSO (mean)): 1.2
fold induction at 2 µM ([3]; HEK293, 2 uM, pGL4, read-out: Firefly pGL4, cmpd/DMSO (mean)): 1.4
fold induction at 2 µM ([3]; HEK293, 2 uM, read-out: Firefly pGL4, cmpd/DMSO (mean)): 1.8
fold induction at 10 µM ([3]; HEK293, 10 uM, pGL4, read-out: Firefly pGL4, cmpd/DMSO (mean)): 4
fold induction at 10 µM ([3]; HEK293, 10 uM, read-out: Firefly pGL4, cmpd/DMSO (mean)): 2.4
fold induction at 40 µM ([3]; HEK293, 40 uM, pGL4, read-out: Firefly pGL4, cmpd/DMSO (mean)): 0.7
fold induction at 40 µM ([3]; HEK293, 40 uM, read-out: Firefly pGL4, cmpd/DMSO (mean)): 0.7
fold induction at 0.5 µM ([3]; HEK293, pGL4, 1% FBS, 0.5 uM, read-out: Firefly, pGL4, 1% FBS, cmpd/DMSO (mean)): 1
fold induction at 2 µM ([3]; HEK293, pGL4, 1% FBS, 2 uM, read-out: Firefly, pGL4, 1% FBS, cmpd/DMSO (mean)): 1
fold induction at 10 µM ([3]; HEK293, pGL4, 1% FBS, 10 uM, read-out: Firefly, pGL4, 1% FBS, cmpd/DMSO (mean)): 1.5
fold induction at 40 µM ([3]; HEK293, pGL4, 1% FBS, 40 uM, read-out: Firefly, pGL4, 1% FBS, cmpd/DMSO (mean)): 0.6
fold induction at 0.5 µM ([3]; HEK293, pGL4, 10% FBS, 0.5 uM, read-out: Firefly, pGL4, 10% FBS, cmpd/DMSO (mean)): 1.1
fold induction at 2 µM ([3]; HEK293, pGL4, 10% FBS, 2 uM, read-out: Firefly, pGL4, 10% FBS, cmpd/DMSO (mean)): 1.7
fold induction at 10 µM ([3]; HEK293, pGL4, 10% FBS, 10 uM, read-out: Firefly, pGL4, 10% FBS, cmpd/DMSO (mean)): 2.7
fold induction at 40 µM ([3]; HEK293, pGL4, 10% FBS, 40 uM, read-out: Firefly, pGL4, 10% FBS, cmpd/DMSO (mean)): 0.5
Renilla LBD, cmpd/DMSO (mean) ([5]; 0.5 uM): 1.1
Renilla LBD, cmpd/DMSO (mean) ([5]; 2 uM): 1.1
Renilla LBD, cmpd/DMSO (mean) ([5]; 10 uM): 0.6
Renilla LBD, cmpd/DMSO (mean) ([5]; 40 uM): 0.2
